Source: patent publication US7727965B2, “C-glycosylisoflavones having alkylaminoalkoxyl substituent, preparation and use of the same” (Hainan Yangpu New & Special Medicine Co., Ltd., priority 2003, dated 2010)

Assays:
Kunming mice = experiment: Normal pressure hypoxia-resistance test in mice; type: in vivo; details: 60 mg/Kg intraperitoneal, 0.5 hours before sealing in 250 ml bottles, examples tested as hydrochloride salts
Description: This test was carried out by a common method familiar to those skilled in the art. 32 Kunming mice (16 males vs. 16 females, body weights ranging from 18 to 20 g) were randomly divided into a control group and a administration group (each group having 16 animals), wherein the dosage was 60 mg/Kg mouse and 0.2 ml for each animal. After 0.5 hours of the intraperitoneal injection of test solutions, the mice were placed and sealed in 250 ml wide-mouthed bottles with ground stoppers. The times of death were recorded. Statistical analysis was conducted separately with respect to the blank control group and puerarin group, and P values were calculated.

[1] = cited from earlier work
[2] = cited from earlier work; remark: listed apart in the source
[3] = 568 patients administered with puerarin; cited from earlier work

In the case of O=c1c(-c2ccc(OCCCN3CCOCC3)cc2)coc2c([C@@H]3O[C@H](CO)[C@@H](O)[C@H](O)[C@H]3O)c(O)ccc12 [Example 4, 4′-(3-N-morpholinylpropoxy)-7-hydroxy-8-β-D-(1-deoxyglucosyl)isoflavone], the “Time to death” value (Kunming mice) is reported as 75.3 ± 7 min.

In the case of CCN(CC)CCCOc1ccc(-c2coc3c([C@@H]4O[C@H](CO)[C@@H](O)[C@H](O)[C@H]4O)c(O)ccc3c2=O)cc1 [Example 6, 4′-(3-N-diethylaminopropoxy)-7-hydroxy-8-β-D-(1-deoxyglucosyl)-isoflavone], the “Time to death” value (Kunming mice) is reported as 73.5 ± 9 min.

For CCCN(CCC)CCCOc1ccc(-c2coc3c([C@@H]4O[C@H](CO)[C@@H](O)[C@H](O)[C@H]4O)c(O)ccc3c2=O)cc1 [Example 7, 4′-[3-N-di(n-propyl)aminopropoxy]-7-hydroxy-8-β-D-(1-deoxyglucosyl)-isoflavone], the “Time to death” value (Kunming mice) was 69.8 ± 5 min.

For CCN(CC)CCCCOc1ccc(-c2coc3c([C@@H]4O[C@H](CO)[C@@H](O)[C@H](O)[C@H]4O)c(O)ccc3c2=O)cc1 [Example 14, 4′-(4-N-diethylaminobutoxy)-7-hydroxy-8-β-D-(1-deoxyglucosyl)isoflavone], the “Time to death” value (Kunming mice) was 79.1 ± 8 min.

With CN1CCN(CCCCOc2ccc(-c3coc4c([C@@H]5O[C@H](CO)[C@@H](O)[C@H](O)[C@H]5O)c(O)ccc4c3=O)cc2)CC1 [Example 17, 4′-(4-N-methylpiperazinylbutoxy)-7-hydroxy-8-β-D-(1-deoxyglucosyl)-isoflavone] the “Time to death” value (Kunming mice) was 59.8 ± 7 min.

In the case of CCN1CCN(CCCCOc2ccc(-c3coc4c([C@@H]5O[C@H](CO)[C@@H](O)[C@H](O)[C@H]5O)c(O)ccc4c3=O)cc2)CC1 [Example 18, 4′-(4-N-ethylpiperazinylbutoxy)-7-hydroxy-8-β-D-(1-deoxyglucosyl)-isoflavone], the “Time to death” value (Kunming mice) is reported as 75.9 ± 6 min.

For O=c1c(-c2ccc(O)cc2)coc2c([C@@H]3O[C@H](CO)[C@@H](O)[C@H](O)[C@H]3O)c(O)ccc12 [puerarin, 4′,7-dihydroxy-8-β-D-C-glycosylisoflavone], the “solubility of puerarin in 4.3% PVP aqueous solution” value ([1]; 4.3% PVP aqueous solution) is given as 1.332 g/100 ml, the “stability in an aqueous solution” value ([1]; relatively high pH value) is given as “poor stability” and the “solubility of puerarin in water” value ([1]; water) is given as 0.462 g/100 ml. For the same molecule, the “Time to death” value (Kunming mice) was 48.3 ± 5 min, the oral bioavailability [2] was “about 30%” and the “total incidence rate of febrile” value [3] was 5.81%.
